Target: T1, human TGR5 receptor (Homo sapiens, UniProt Q8TDU6)
T1 construct: expressed in transfected cells
T1 sequence (Q8TDU6 1-330): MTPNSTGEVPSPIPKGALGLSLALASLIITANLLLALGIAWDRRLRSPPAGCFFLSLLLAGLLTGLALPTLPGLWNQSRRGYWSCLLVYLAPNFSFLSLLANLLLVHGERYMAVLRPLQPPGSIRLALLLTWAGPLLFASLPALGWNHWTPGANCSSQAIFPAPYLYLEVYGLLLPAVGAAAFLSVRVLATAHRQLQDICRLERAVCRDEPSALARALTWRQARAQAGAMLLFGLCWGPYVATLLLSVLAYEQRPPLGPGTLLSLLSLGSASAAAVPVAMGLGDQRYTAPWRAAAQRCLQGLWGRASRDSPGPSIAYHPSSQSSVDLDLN
Test: TGR5 cAMP assay
Assay type: cell-based
Settings: TGR5 agonist activity; cAMP production in a recombinant cell line expressing human TGR5 receptor
Experimental: TGR5 agonist activity was evaluated by assaying cAMP production in a recombinant cell line expressing human TGR5 receptor.

CO[C@@H]1C[C@@H]2C[C@H](O)CC[C@]2(C)[C@H]2CC[C@]3(C)[C@@H]([C@H](C)CCC(=O)O)CC[C@H]3[C@H]12 [Example 3, (R)-4-((3R,5S,7R,8R,9S,10S,13R,14S,17R)-3-hydroxy-7-methoxy-10,13-dimethylhexadecahydro-1H-cyclopenta[a]phenanthren-17-yl)pentanoic acid]
EC50: 74.9 nM

COCCOCCNC(=O)CC[C@@H](C)[C@H]1CC[C@H]2[C@@H]3[C@H](OC)C[C@@H]4C[C@H](O)CC[C@]4(C)[C@H]3CC[C@]12C [Example 4, (R)-4-((3R,5S,7R,8R,9S,10S,13R,14S,17R)-3-hydroxy-7-methoxy-10,13-dimethylhexadecahydro-1H-cyclopenta[a]phenanthren-17-yl)-N-(2-(2-methoxyethoxy)ethyl)pentanamide]
EC50: 49.5 nM

COCc1nnc(CC[C@@H](C)[C@H]2CC[C@H]3[C@@H]4[C@H](OC)C[C@@H]5C[C@H](O)CC[C@]5(C)[C@H]4CC[C@]23C)o1 [Example 5, (3R,5S,7R,8R,9S,10S,13R,14S,17R)-7-methoxy-17-((R)-4-(5-(methoxymethyl)-1,3,4-oxadiazol-2-yl)butan-2-yl)-10,13-dimethylhexadecahydro-1-cyclopenta[a]phenanthren-3-ol]
EC50: 22.6 nM

CO[C@@H]1C[C@@H]2C[C@H](O)CC[C@]2(C)[C@H]2CC[C@]3(C)[C@@H]([C@H](C)CCC(=O)NC[C@H](O)[C@@H](O)[C@H](O)[C@H](O)CO)CC[C@H]3[C@H]12 [Example 6, (R)-4-((3R,5S,7R,8R,9S,10S,13R,14S,17R)-3-hydroxy-7-methoxy-10,13-dimethylhexadecahydro-1H-cyclopenta[a]phenanthren-17-yl)-N-((2S,3R,4R,5R)-2,3,4,5,6-pentahydroxyhexyl)pentanamide]
EC50: 27.7 nM

CO[C@@H]1C[C@@H]2C[C@H](O)CC[C@]2(C)[C@H]2CC[C@]3(C)[C@@H]([C@H](C)CCC(=O)N(C)C[C@H](O)[C@@H](O)[C@H](O)[C@H](O)CO)CC[C@H]3[C@H]12 [Example 7, (R)-4-((3R,5S,7R,8R,9S,10S,13R,14S,17R)-3-hydroxy-7-methoxy-10,13-dimethylhexadecahydro-1H-cyclopenta[a]phenanthren-17-yl)-N-methyl-N-((2S,3R,4R,5R)-2,3,4,5,6-pentahydroxyhexyl)pentanamide]
EC50: 60.1 nM
